Here are results for six compounds from patent US20220387468A1, “METHODS OF TREATING CANCER” (ASTRAZENECA AB, priority 2019, published 2022).

Experiment [1] concerns pancreatic cancer cell lines (SLFN11-deficient or SLFN11-proficient). Briefly: Pancreatic cell line panel, 6x6 concentration matrix, live-dead SyTox green assay, Loewe synergy. The class given is cell-based. The text has this: SLFN11 RNA seq data (log 2 RPKM values) were downloaded from cancer cell line encyclopedia (CCLE) (Barretina J. et al., Nature, 2012; 483: 603-607) and drug response data (log(IC50) and area under the dose-response curve (AUCs)) from drug sensitivity in cancer database (Yang W et al., Nucleic Acids Res, 2013; 41: […]-61). Cell lines with CCLE RNA seq log 2 RPKM values below 1 were defined as SLFN11-deficient and cell lines with log 2 RPKM values above 1 as SLFN11-proficient. Nineteen pancreatic cell lines in 384-well plates were dosed with increasing concentrations of adavosertib and gemcitabine in a 6×6 concentration matrix using an Echo 555 (LabCyte). The dose range was 0-3 μM for adavosertib, and 0-0.3 μM for gemcitabine; in both cases dilutions 1:3 from the top dose were performed. Five days following continuous treatment, cell viability was determined by live-dead SyTox green assay (Life Technologies, Carlsbad, Calif., USA). Synergy was analyzed in Genedata screener software using the Loewe dose-additivity model as described above.

Experiment [2] deals with DU145 isogenic cells (WT and SLFN11 KO). The class given is cell-based. The settings on record: SLFN11 KO cells compared to wild type DU145 cells; 72 hours; FIG. 2D. As to the method:
For cell survival experiment in 96 well plate, cells were seeded in 96-well plates, following compound dosing using a HP dispenser. 72 hours later, cell viability was determined with end-point CellTiter-Glo luminescent assays (Promega). Percentage growth was calculated using the equation (T−T0)/(C−T0)×100, where T=compound-treated cells; T0=cells at 0 h time point and C=control cells. Dose response curves were plotted in GraphPad prism.

As to `C=CCn1c(=O)c2cnc(Nc3ccc(N4CCN(C)CC4)cc3)nc2n1-c1cccc(C(C)(C)O)n1` [adavosertib], the “response (log IC50) of SLFN11-deficient versus SLFN11-proficient cell lines” value in experiment [1] (adavosertib monotherapy, FIG. 3B) is given as “same response”.
As to `CC[C@@]1(O)C(=O)OCc2c1cc1n(c2=O)Cc2cc3ccccc3nc2-1` [camptothecin], the “sensitivity to DDA monotherapy (survival curves)” value (from here on “sensitivity to DDA monotherapy”) in experiment [2] is “resistant”.
Consider `N.N.[Cl][Pt][Cl]` [cisplatin], for which the “sensitivity to DDA monotherapy” value in experiment [2] is listed as “resistant”.
Still for that read-out and setting: for `COc1cc([C@@H]2c3cc4c(cc3[C@@H](O[C@@H]3O[C@@H]5CO[C@@H](C)O[C@H]5[C@H](O)[C@H]3O)[C@H]3COC(=O)[C@H]23)OCO4)cc(OC)c1O` [etoposide] the value was “resistant”.
As for `Nc1ccn([C@@H]2O[C@H](CO)[C@@H](O)C2(F)F)c(=O)n1` [gemcitabine], the “sensitivity to DDA monotherapy” value in experiment [2] is recorded as “resistant”. Further, the “sensitivity (log IC50) of SLFN11-deficient versus SLFN11-proficient cell lines, fold less sensitive” value in experiment [1] (gemcitabine monotherapy, on average, FIG. 3A) was found to be 100 times.
With `NC(=O)NO` [hydroxyurea], the “sensitivity to DDA monotherapy” value in experiment [2] is “resistant”.
